According to article PMC10172623 (Computational and Structural Biotechnology Journal, 2023):

Experiments:
TylF [1] = target: TylF (Streptomyces fradiae, UniProt Q9S4D5, Y139F); assay: biochemical
TylF [2] = target: TylF (Streptomyces fradiae, UniProt Q9S4D5); assay: biochemical
Chain of TylF (Streptomyces fradiae, UniProt Q9S4D5) (Q9S4D5 whole entry): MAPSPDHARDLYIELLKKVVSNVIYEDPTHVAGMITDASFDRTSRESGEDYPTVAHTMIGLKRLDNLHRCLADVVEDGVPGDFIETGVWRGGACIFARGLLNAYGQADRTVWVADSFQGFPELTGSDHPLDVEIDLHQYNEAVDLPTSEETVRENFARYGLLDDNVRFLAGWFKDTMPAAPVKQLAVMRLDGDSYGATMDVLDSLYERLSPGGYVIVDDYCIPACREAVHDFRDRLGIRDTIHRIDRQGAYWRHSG

Chain of TylF (Streptomyces fradiae, UniProt Q9S4D5, Y139F) (Q9S4D5 whole entry Y139F): as the sequence (Q9S4D5 whole entry) above, with Y139F counted along it

With C[S+](CC[C@H](N)C(=O)O)C[C@H]1O[C@@H](n2cnc3c(N)ncnc32)[C@H](O)[C@@H]1O (some centres unmarked) [SAM] the Kd (TylF [1]) was 265 ± 24.3 µM and the Kd (TylF [2]) was 162 ± 91.6 µM.
